“Also recorded” adds a separate entry of the source. Ends that are not written are not given here.
Assays:
[1] = tested on: ASIC1a S240C; test: Modification of Cys mutant by MTSET; assay type: cell-based, human; conditions: 1 mM MTSET 3 min, pH dependence of activation and SSD, n=4-6
Method: (§1) Figure S2. Modification of Cys mutants by MTSET. To determine whether exposure to MTSET modified specific Cys mutants, we applied pH protocols that detect shifts in the pH dependence of activation and of steady-state desen sitization (SSD) to ASIC1a-e xpressing oocytes, before and after a 3-min exposure to 1mM MTSET. a, illustration of the experimental protocol at the example of the E97C mutant. The acidic solution was applied once every minute, except during the incubation with MTSET. b, ratio of current amplitudes obtained at pH6.5 and pH5 from the conditioning pH7.4, as a measure of the pH dependence of activation, before (open bars) and after MTSET expo sure (red bars). c, ratio of the current amplitude at pH5 from the conditioning pH7.15 / the current amplitude at pH5 obtained from the conditioning pH7.4, as an indication of the pH dependence of SSD, n=4-6. *, p<0.05; **, p<0.01; ***, p<0.001; ****, p<0.0001; different between control and MTSET condition, […]
(§2) WT ASIC1a3,4. If a functional property is changed after MTSET incubation and its washout, it is concluded that the engineered Cys residue has been modified by MTSET. This analysis […]
(§3) (1 picture or pasted object on this page, not shown here)

[2] = tested on: ASIC1a F302C; test: Modification of Cys mutant by MTSET; assay type: cell-based, human; conditions: 1 mM MTSET 3 min, pH dependence of activation and SSD, n=4-6
Method: as §1, §2, §3

[3] = tested on: ASIC1a E242C; test: Modification of Cys mutant by MTSET; assay type: cell-based, human; conditions: 1 mM MTSET 3 min, pH dependence of activation and SSD, n=4-6
Method: as §1, §2, §3

[4] = tested on: ASIC1a E97C; test: Modification of Cys mutant by MTSET; assay type: cell-based, human; conditions: 1 mM MTSET 3 min, pH dependence of activation and SSD, n=4-6
Method: as §1, §2, §3

[5] = tested on: ASIC1a L280C; conditions: L280C mutant; cited from earlier work
From the text: (§4) Based on in silico docking, mutagenesis and functional validation, our study points to the side cavities of the central vestibule as the most probable binding sites for the peptide FRRFa. […] The 40-amino acid peptide toxin PcTx1 binds into the acidic pocket and to the subunit interface ...

[6] = tested on: ENaC/degenerin ion channel family; conditions: cited from earlier work
From the text: (§5) FaNaC-like channels have been described in mollusks and Hydra[8]–[10], but not in mammals. Mammals express FMRFa-related peptides that exert their pharmacological actions mainly by binding to G protein-coupled receptors. Mammalian FMRFa-like peptides contain more than four residues. Since they ...

[7] = tested on: ASIC1a; conditions: cited from earlier work; for competition between functional effects: PcTx1 vs big dynorphin
From the text: as §4

[8] = tested on: ASIC1a; conditions: cited from earlier work
Method: Currently it is not known where in the ASICs the RFa peptides bind. […] Our docking studies predicted possible b ... || ASIC1a function was measured by two-electrode voltage-clamp after recombinant expression in Xenopus oocytes. The channels were activated by a pH5 stimulation solution from a conditioning solution of pH7.4. […] We measured the rate of FRRFa unbinding, as the disappearance of the sustained current after a 50-s incubation with 50 μM FRRFa, as 0.025 ± 0.005 s^−1 (n = 8, Fig. 2b).

[9] = tested on: ASIC1- and ASIC3-containing channels; conditions: FMRFa and related peptides; cited from earlier work
From the text: as §5

[10] = tested on: FaNaC; conditions: molluscan FaNaC; cited from earlier work
From the text: as §5

Question: With `C[N+](C)(C)CCSS(C)(=O)=O` [MTSET, [2-(trimethylamonium)ethyl] methanethiosulfonate] as the compound, how does the “modification by MTSET” value [1] read?
Answer: Its value is “evidence for modification by MTSET; also recorded: exposure to MTSET changes the properties of the mutants E97C, S240C and E242C”.

Question: And the “modification by MTSET” value [2]?
Answer: The value was “evidence for modification by MTSET”.

Question: And the “modification by MTSET” value [3]?
Answer: Its value is “evidence for modification by MTSET; also recorded: exposure to MTSET changes the properties of the mutants E97C, S240C and E242C”.

Question: What about the “modification by MTSET” value [4] of the same compound?
Answer: The value was “evidence for modification by MTSET; also recorded: exposure to MTSET changes the properties of the mutants E97C, S240C and E242C”.

Question: What about the “effect of MTSET modification on sustained current fraction” value [5] of the same compound?
Answer: The value was “strongly increases the sustained current fraction”.

Question: For `N=C(N)NC(=O)c1nc(Cl)c(N)nc1N` [amiloride], which “inhibition of ENaC/degenerin channels” value [6] is on record?
Answer: The value was “inhibited by amiloride”.

Question: For “PcTx1: 40-amino acid peptide toxin PcTx1 (EDCIPKWKGCVNRHGDCCEGLECWKRRRSFEVCVPKTPKT; ends and bridges not checked; cysteine pairing not given here; UniProt P60514 1-40, looked up)”, which “competition between functional effects” value [7] is on record?
Answer: The value was “a competition between the functional effects of PcTx1 and the peptide big dynorphin”.

Question: For Phe-Met-Arg-Phe-amide [FMRFa], which requirement of pre-application [8] is on record?
Answer: Its requirement of pre-application is “affect ASIC1a currents only when pre-applied with the conditioning solution at pH 7.4”.

Question: And the “effects on ASIC desensitization, sustained current and SSD” value [9]?
Answer: The value was “slow the desensitization time course of ASIC1- and ASIC3-containing channels and induce a sustained (non-desensitizing) current as well as an acidic shift in the SSD pH dependence of ASIC1a”.

Question: And the channel activation [10]?
Answer: The channel activation was “activated by the neuropeptide Phe-Met-Arg-Phe-amide (FMRFa)”.

Question: With “big dynorphin: a remotely related Arg-rich 32-amino acid peptide” as the compound, how does the “competition between functional effects” value [7] read?
Answer: Its value is “a competition between the functional effects of PcTx1 and the peptide big dynorphin”.

Question: What about the “modulation of ASIC1a” value [7] of the same compound?
Answer: Its value is “modulates ASIC1a in a similar way as RFa peptides do”.

Source: article PMC6385203, “Mutations in the palm domain disrupt modulation of acid-sensing ion channel 1a currents by neuropeptides” (Scientific Reports, 2019)
